According to US20120094963A1, “TARGETING PRODRUGS AND COMPOSITIONS FOR THE TREATMENT OF GASTROINTESTINAL DISEASES” (of Queen Elizabeth near Dublin, priority 2008, published 2012):
“And” between values parts separate entries of the source, which are not always exact repeats. Equal values may be shown once. Read-outs that look alike come from different tables or passages of the source.

Key:
Clostridium perfringens = settings: anaerobic, 37° C.; for Celecoxib prodrug concentration: C. perfringens in BHI
[1] = BHI media without bacteria
intestinal polyps = settings: 100 ppm in the diet; min mice; cited from earlier work
[2] = long-term (33 months) high-dose, 400 and 800 mg daily; cited from earlier work
small intestinal polyps = settings: 50 mg/kg qd p.o.; APCmin mice; cited from earlier work
[3] = cited from earlier work; for risk of heart attack: VIGOR study patients
[4] = APPROVe; beginning after 18 months of therapy; cited from earlier work

In the case of `Cc1ccc(-c2cc(C(F)(F)F)nn2-c2ccc(S(=O)(=O)NC(=O)CCc3ccccc3/N=N/c3ccc(O)c(C(=O)O)c3)cc2)cc1` [PC1, 2-Hydroxy-5-(2-3{-oxo-3[4-(5-p-tolyl-3-trifluoromethyl-pyrazol-1-yl)-benzenesulfonylamino]-propyl}-phenylazo)-benzoic acid], the Celecoxib prodrug concentration (Clostridium perfringens; 0 hours) is reported as 15.59 µM and 14.97 µM, the Celecoxib prodrug concentration (Clostridium perfringens; 8 hours) is reported as 0.00 µM and the Celecoxib prodrug concentration (Clostridium perfringens; 24 hours) is reported as 0.00 µM. The “Azoreductase activity of Clostridium perfringens towards the prodrug” value (Clostridium perfringens) was “Azoreductase activity was observed”, the “Celecoxib prodrug in BHI” value ([1]; 0 hours) was 16.70 µM and the “Celecoxib prodrug in BHI” value ([1]; 2 hours) was 18.40 µM. The “Celecoxib prodrug in BHI” value ([1]; 4 hours) was 17.14 µM, the “Celecoxib prodrug in BHI” value ([1]; 6 hours) was 15.29 µM and the “Celecoxib prodrug in BHI” value ([1]; 8 hours) was 15.15 µM. The “Celecoxib prodrug in BHI” value ([1]; 24 hours) was 16.99 µM.

In the case of `CC(C)c1c(C(=O)Nc2ccccc2)c(-c2ccccc2)c(-c2ccc(F)cc2)n1CC[C@@H](O)C[C@@H](O)CC(=O)O` [atorvastatin], the intestinal polyp formation (intestinal polyps) is given as “significantly (P<0.002) suppressed intestinal polyp formation”.

In the case of `Cc1ccc(-c2cc(C(F)(F)F)nn2-c2ccc(S(N)(=O)=O)cc2)cc1` [celecoxib], the cardiovascular risk [2] is given as “increased cardiovascular risk compared with placebo”.

For `C#Cc1cccc(Nc2ncnc3cc(OCCOC)c(OCCOC)cc23)c1` [erlotinib], the “inhibition in total polyp number” value (small intestinal polyps) is given as 57%, the “reduction in the number of 1- to 2-mm-sized polyps” value (small intestinal polyps) is given as 46% and the “reduction in the number of <1-mm-sized polyps” value (small intestinal polyps) is given as 43%. The “reduction in the number of large-sized (>2 mm) polyps” value (small intestinal polyps) was 96%.

In the case of `COc1ccc2cc([C@H](C)C(=O)O)ccc2c1` [naproxen], the “risk of heart attack” value [3] is listed as 0.1%.

For `CS(=O)(=O)c1ccc(C2=C(c3ccccc3)C(=O)OC2)cc1` [rofecoxib], the “risk of heart attack” value [3] is listed as 0.4%, the “RR of heart attack” value ([3]; VIGOR study, naproxen patients compared with rofecoxib patients) is listed as 0.25 and the “risk of adverse thrombotic cardiovascular events” value [4] is listed as “increased relative risk of adverse thrombotic cardiovascular events”.
